Test results reported in patent publication US9309250B2, “Substituted pyrrolo[2,3-b]pyrazines as ATR kinase inhibitors” (Vertex Pharmaceuticals Incorporated, priority 2011, dated 2016).

Target: T1, full-length ATR (Homo sapiens, UniProt Q13535)
T1 construct: Assays were carried out at 25° C. in the presence of 5 nM full-length ATR
Test: ATR Inhibition Assay (radioactive-phosphate incorporation)
Assay type: biochemical
Details: Ki(app); 5 nM full-length ATR, 10 μM ATP, 800 μM target peptide, 25° C.
Experimental: Compounds were screened for their ability to inhibit ATR kinase using a radioactive-phosphate incorporation assay. Assays were carried out in a mixture of 50 mM Tris/HCl (pH 7.5), 10 mM MgCl2 and 1 mM DTT. Final substrate concentrations were 10 μM [γ-33P]ATP (3mCi 33P ATP/mmol ATP, Perkin Elmer) and 800 μM target peptide (ASELPASQPQPFSAKKK) (SEQ. ID. NO: 1).
Assays were carried out at 25° C. in the presence of 5 nM full-length ATR. An assay stock buffer solution was prepared containing all of the reagents listed above, with the exception of ATP and the test compound of interest. 13.5 μL of the stock solution was placed in a 96 well plate followed by addition of 2 μL of DMSO stock containing serial dilutions of the test compound (typically starting from a final concentration of 15 μM with 3-fold serial dilutions) in duplicate (final DMSO concentration 7%). The plate was pre-incubated for 10 minutes at 25° C. and the reaction initiated by addition of 15 μL [γ-33P]ATP (final concentration 10 μM).
The reaction was stopped after […] by the addition of 30 μL 0.1M phosphoric acid containing 2 mM ATP. A multiscreen phosphocellulose filter 96-well plate (Millipore, Cat no. MAPHN0B50) was pretreated with 100 μL 0.2M phosphoric acid prior to the addition of 45 μL of the stopped assay mixture. The plate was washed with 5×200 μL 0.2M phosphoric acid. After drying, 100 μL Optiphase ‘SuperMix’ liquid scintillation cocktail (Perkin Elmer) was added to the well prior to scintillation counting (1450 Microbeta Liquid Scintillation Counter, Wallac).
After removing mean background values for all of the data points, Ki(app) data were calculated from non-linear regression analysis of the initial rate data using the Prism software package (GraphPad Prism version 3.0cx for Macintosh, GraphPad Software, San Diego Calif., USA).
Below is a chart showing the ATR Inhibition Ki values of compounds of the disclosure.

T1 sequence (Q13535 whole entry): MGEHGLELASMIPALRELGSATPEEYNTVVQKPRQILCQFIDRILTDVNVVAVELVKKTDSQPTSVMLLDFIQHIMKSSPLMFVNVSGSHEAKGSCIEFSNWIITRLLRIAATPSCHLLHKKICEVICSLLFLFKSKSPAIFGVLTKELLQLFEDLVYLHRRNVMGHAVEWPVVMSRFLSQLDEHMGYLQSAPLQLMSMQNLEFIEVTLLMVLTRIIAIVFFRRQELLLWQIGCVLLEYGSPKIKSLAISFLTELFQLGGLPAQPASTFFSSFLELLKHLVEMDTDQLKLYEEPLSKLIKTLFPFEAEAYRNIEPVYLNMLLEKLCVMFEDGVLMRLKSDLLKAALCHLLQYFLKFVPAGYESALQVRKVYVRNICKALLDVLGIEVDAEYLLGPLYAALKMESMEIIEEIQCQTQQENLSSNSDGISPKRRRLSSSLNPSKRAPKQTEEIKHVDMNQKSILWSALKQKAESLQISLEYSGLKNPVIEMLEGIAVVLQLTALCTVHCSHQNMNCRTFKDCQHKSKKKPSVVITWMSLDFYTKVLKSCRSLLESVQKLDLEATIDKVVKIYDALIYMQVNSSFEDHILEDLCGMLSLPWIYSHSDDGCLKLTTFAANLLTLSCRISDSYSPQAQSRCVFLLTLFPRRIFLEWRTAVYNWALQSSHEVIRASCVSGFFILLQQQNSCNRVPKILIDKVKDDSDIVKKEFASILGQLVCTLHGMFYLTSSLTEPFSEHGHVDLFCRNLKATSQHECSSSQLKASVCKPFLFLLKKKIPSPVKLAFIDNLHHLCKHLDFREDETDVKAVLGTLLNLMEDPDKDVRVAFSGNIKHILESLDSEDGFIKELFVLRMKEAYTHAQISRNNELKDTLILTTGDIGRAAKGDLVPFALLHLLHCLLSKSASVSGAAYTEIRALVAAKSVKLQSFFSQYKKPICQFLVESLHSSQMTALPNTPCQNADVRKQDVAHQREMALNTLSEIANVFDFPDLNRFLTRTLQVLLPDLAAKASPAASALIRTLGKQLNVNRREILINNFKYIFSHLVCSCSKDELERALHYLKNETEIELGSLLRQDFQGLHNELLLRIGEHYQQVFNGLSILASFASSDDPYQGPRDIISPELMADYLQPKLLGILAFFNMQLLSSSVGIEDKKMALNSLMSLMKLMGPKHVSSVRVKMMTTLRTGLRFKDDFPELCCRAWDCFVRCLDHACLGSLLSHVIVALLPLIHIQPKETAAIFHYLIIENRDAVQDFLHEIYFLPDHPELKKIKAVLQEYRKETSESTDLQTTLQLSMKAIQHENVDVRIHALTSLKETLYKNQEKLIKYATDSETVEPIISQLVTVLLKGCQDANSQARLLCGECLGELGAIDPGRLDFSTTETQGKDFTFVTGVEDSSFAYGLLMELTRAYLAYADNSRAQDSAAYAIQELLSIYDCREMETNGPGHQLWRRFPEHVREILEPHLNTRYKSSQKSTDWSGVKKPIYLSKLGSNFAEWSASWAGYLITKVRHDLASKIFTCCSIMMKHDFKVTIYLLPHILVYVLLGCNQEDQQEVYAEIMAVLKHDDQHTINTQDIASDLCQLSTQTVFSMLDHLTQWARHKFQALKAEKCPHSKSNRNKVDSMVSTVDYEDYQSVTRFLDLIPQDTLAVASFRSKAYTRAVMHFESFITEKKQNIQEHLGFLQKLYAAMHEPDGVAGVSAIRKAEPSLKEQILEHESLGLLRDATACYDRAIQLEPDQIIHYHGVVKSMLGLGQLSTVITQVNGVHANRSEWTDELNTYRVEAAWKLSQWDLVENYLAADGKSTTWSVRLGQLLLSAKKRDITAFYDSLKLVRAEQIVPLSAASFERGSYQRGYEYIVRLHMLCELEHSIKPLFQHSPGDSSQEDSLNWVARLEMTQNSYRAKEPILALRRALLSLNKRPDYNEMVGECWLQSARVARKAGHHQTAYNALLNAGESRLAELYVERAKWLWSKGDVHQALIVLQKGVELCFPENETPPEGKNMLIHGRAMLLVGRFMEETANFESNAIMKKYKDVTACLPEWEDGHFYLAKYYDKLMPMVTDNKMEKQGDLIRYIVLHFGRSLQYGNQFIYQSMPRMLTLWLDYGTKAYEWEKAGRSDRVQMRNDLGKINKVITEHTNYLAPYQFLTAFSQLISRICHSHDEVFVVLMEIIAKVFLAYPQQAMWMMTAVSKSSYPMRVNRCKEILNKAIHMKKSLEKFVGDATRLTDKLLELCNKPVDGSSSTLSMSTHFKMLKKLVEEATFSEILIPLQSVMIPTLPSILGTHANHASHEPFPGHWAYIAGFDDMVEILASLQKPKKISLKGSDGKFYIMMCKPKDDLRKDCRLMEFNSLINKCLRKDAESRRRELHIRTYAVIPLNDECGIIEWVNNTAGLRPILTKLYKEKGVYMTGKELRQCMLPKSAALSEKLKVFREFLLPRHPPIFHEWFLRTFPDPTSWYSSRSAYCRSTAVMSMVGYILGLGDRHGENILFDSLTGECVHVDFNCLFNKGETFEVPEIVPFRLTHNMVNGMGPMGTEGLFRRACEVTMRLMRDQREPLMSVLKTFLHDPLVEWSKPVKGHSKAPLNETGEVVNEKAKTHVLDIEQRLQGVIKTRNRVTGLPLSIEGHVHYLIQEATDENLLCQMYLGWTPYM

Row | Structure (SMILES) | Ki
1 | CC(C)S(=O)(=O)c1ccc(-c2cnc3[nH]cc(N4Cc5cc(-c6ccn[nH]6)ccc5C4=O)c3n2)cc1 [Compound I-43, 2-(2-(4-(isopropylsulfonyl)phenyl)-5H-pyrrolo[2,3-b]pyrazin-7-yl)-5-(1H-pyrazol-5-yl)isoindolin-1-one] | ≤ 50 nM
2 | CC(C)S(=O)(=O)c1ccc(-c2cnc3[nH]cc(N4Cc5ccc(OCCN(C)C)cc5C4=O)c3n2)cc1 [Compound I-46, 6-(2-(dimethylamino)ethoxy)-2-(2-(4-(isopropylsulfonyl)phenyl)-5H-pyrrolo[2,3-b]pyrazin-7-yl)isoindolin-1-one] | ≤ 50 nM
3 | N#CC1(c2cc(-c3cnc4[nH]cc(N5Cc6ccccc6C5=O)c4n3)ccn2)CN2CCC1CC2 (stereo not shown) [Compound I-7, 3-(4-(7-(1-oxoisoindolin-2-yl)-5H-pyrrolo[2,3-b]pyrazin-2-yl)pyridin-2-yl)quinuclidine-3-carbonitrile] | ≤ 50 nM
4 | CC(C)S(=O)(=O)c1ccc(-c2cnc3[nH]cc(N4Cc5c(C#N)cccc5C4=O)c3n2)cc1 [Compound I-16, 2-(2-(4-(isopropylsulfonyl)phenyl)-5H-pyrrolo[2,3-b]pyrazin-7-yl)-1-oxoisoindoline-4-carbonitrile] | 50 to 100 nM
5 | CC(C)S(=O)(=O)c1ccc(-c2cnc3[nH]cc(N4Cc5cc(NCCN6CCOCC6)ccc5C4=O)c3n2)cc1 [Compound I-32, 2-(2-(4-(isopropylsulfonyl)phenyl)-5H-pyrrolo[2,3-b]pyrazin-7-yl)-5-((2-morpholinoethyl)amino)isoindolin-1-one] | ≤ 50 nM

Second part, the compound after the results:

Row | Ki | Structure (SMILES)
6 | ≤ 50 nM | CC(C)S(=O)(=O)c1ccc(-c2cnc3[nH]cc(N4Cc5ccc(N6CC[C@@H](N)C6)cc5C4=O)c3n2)cc1 [Compound I-25, (R)-6-(3-aminopyrrolidin-1-yl)-2-(2-(4-(isopropylsulfonyl)phenyl)-5H-pyrrolo[2,3-b]pyrazin-7-yl)isoindolin-1-one]
7 | ≤ 50 nM | CC(C)S(=O)(=O)c1ccc(-c2cnc3[nH]cc(N4Cc5cc(N6CCCNCC6)ccc5C4=O)c3n2)cc1 [Compound I-38, 5-(1,4-diazepan-1-yl)-2-(2-(4-(isopropylsulfonyl)phenyl)-5H-pyrrolo[2,3-b]pyrazin-7-yl)isoindolin-1-one]
8 | 50 to 100 nM | CC(C)S(=O)(=O)c1ccc(-c2cnc3[nH]cc(N4Cc5cc(N6CCC(CN)CC6)ccc5C4=O)c3n2)cc1 [Compound I-33, 5-(4-(aminomethyl)piperidin-1-yl)-2-(2-(4-(isopropylsulfonyl)phenyl)-5H-pyrrolo[2,3-b]pyrazin-7-yl)isoindolin-1-one]
9 | ≤ 50 nM | CC(C)S(=O)(=O)c1ccc(-c2cnc3[nH]cc(N4Cc5cc(N6CC[C@@H](CN)C6)ccc5C4=O)c3n2)cc1 [Compound I-35, (S)-5-(3-(aminomethyl)pyrrolidin-1-yl)-2-(2-(4-(isopropylsulfonyl)phenyl)-5H-pyrrolo[2,3-b]pyrazin-7-yl)isoindolin-1-one]
10 | ≤ 50 nM | CC(C)S(=O)(=O)c1ccc(-c2cnc3[nH]cc(N4Cc5cc(NC6CNC6)ccc5C4=O)c3n2)cc1 [Compound I-39, 5-(azetidin-3-ylamino)-2-(2-(4-(isopropylsulfonyl)phenyl)-5H-pyrrolo[2,3-b]pyrazin-7-yl)isoindolin-1-one]
11 | ≤ 50 nM | CC(C)S(=O)(=O)c1ccc(-c2cnc3[nH]cc(N4Cc5cc(NCC6CCCNC6)ccc5C4=O)c3n2)cc1 (stereo not shown) [Compound I-40, 2-(2-(4-(isopropylsulfonyl)phenyl)-5H-pyrrolo[2,3-b]pyrazin-7-yl)-5-((piperidin-3-ylmethyl)amino)isoindolin-1-one]
12 | ≤ 50 nM | CC(C)S(=O)(=O)c1ccc(-c2cnc3[nH]cc(N4Cc5cc(N6CC[C@@H](N)C6)ccc5C4=O)c3n2)cc1 [Compound I-42, (R)-5-(3-aminopyrrolidin-1-yl)-2-(2-(4-(isopropylsulfonyl)phenyl)-5H-pyrrolo[2,3-b]pyrazin-7-yl)isoindolin-1-one]

Same assay, conditions: numeric bound printed among class symbols; Ki(app); 5 nM full-length ATR, 10 μM ATP, 25° C.

Row | Ki | Structure (SMILES)
13 | > 4000 nM | CC(C)S(=O)(=O)c1ccc(-c2cnc3[nH]cc(N4Cc5ccc(C#N)cc5C4=O)c3n2)cc1 [Compound I-13, 2-(2-(4-(isopropylsulfonyl)phenyl)-5H-pyrrolo[2,3-b]pyrazin-7-yl)-3-oxoisoindoline-5-carbonitrile]
